From PMC10049354, “Anti-Inflammatory Effects and Photo- and Neuro-Protective Properties of BIO203, a New Amide Conjugate of Norbixin, in Development for the Treatment of Age-Related Macular Degeneration (AMD)” (International Journal of Molecular Sciences, 2023)

How the values were obtained:
[1] = Powder stability at RT, 4 °C and −20 °C for up to 18 months (LC-MS/MS); format: physicochemical; details: for loss of the compound: 4 °C
Experimental: The potential breakdown of BIO203 compared to BIO201 was assessed every three months in samples stored for up to 18 months at room temperature, 4 °C, and −20 °C. On the day of analysis, weighted samples of BIO203 and norbixin powder were solubilized in DMSO at 10 mg/mL final concentration. DMSO solutions were further diluted 400-fold before performing LC-MS/MS analysis which was performed on an LC 1260 System coupled with Mass Spectrometer QQQ-6420 with DAD (Supplier Agilent Technologies). BIO201 and BIO203 were eluted from a reverse-phase column (2.1 mm × 50 mm; 5 μm particles; Fortis C18) with the following gradient of acetonitrile in water (both containing 0.1% formic acid): 10 to 100% in 10 min), (flow-rate: 0.3 mL/min), (UV detection A: 460 nm, B: 254 nm, DAD: 210–500 nm), (MS scan+: 50 to 800 Frag 120 CAV 5, MS scan-: 50 to 800 Frag 120 CAV 5). The AUC value was used to determine the stability of each compound.

[2] = Acute ocular PK in rats following a single IP administration; format: in vivo, rat; details: for intraocular AUC / intraocular Cmax / time of intraocular Cmax post-administration: norbixin 10 mg/kg, BIO203 8.8 mg/kg
Experimental: The compounds were administered to 8–9 months-old Male Sprague-Dawley rats (n = 3 per group and per collection time) by the intraperitoneal route in vehicle (DMSO/NaCl/NaOH for BIO203 and PBS/Tween 80 (95/5) for norbixin) with an administration volume of 10 mL/kg. The solutions of BIO203 and norbixin were centrifuged, and the clear supernatants were administered to rats. The final injected concentrations were 10 mg/kg and 8.8 mg/kg for norbixin and BIO203, respectively. Doses administered differ because BIO201 and BIO203 solubility are not equivalent in their respective vehicles, and the dose of BIO203 was reduced to avoid toxicity of DMSO present in the vehicle, but the same volumes were injected into animals. Eyes were collected post-administration according to the following timing: 0, 0.08 h, 0.25 h, 0.5 h, 1 h, 1.5 h, 2 h, 4 h, 8 h, and 24 h. After euthanasia, the two eyes of each rat were collected in a Precellys tube, frozen, and stored at −80 °C.
(§1) Analysis was performed on an LC 1260 System coupled with Mass Spectrometer QQQ-6420 with DAD (Agilent Technologies). Norbixin and BIO203 were eluted from a reverse-phase column (2.1 × 50 mm; 3 μm particles; Ace Excel C18) with the following gradient of acetonitrile in water (both containing 0.1% formic acid): 55 to 100% in 5 min), (flowrate: 0.3 mL/min). […] were monitored by a mass spectrometer, in positive MRM mode, with the following transitions, respectively, 381.1 -> 144.9 and 478.1 -> 362.9. For quantification of BIO201 and BIO203, calibration curves were prepared under the same conditions as the sample matrix, with various amounts of BIO201 or BIO203 (25 to 10,000 ng/mL in plasma and 5 to 500 ng/mL for eyes).
For determination of concentrations of BIO201 or BIO203 in ocular tissues, each eye was homogenized in CHCl3/MeOH (1:1, v/v) (0.5 mL) with a homogenizer (Precellys-24) during 2 cycles (30 s) at 6500 rpm. The internal standard (retinoic acid at 10 µg/mL) was added, and the organic layer was extracted. The homogenate was then extracted two times with CHCl3/CH2Cl2 (0.5 mL). The combined organic extracts were dried in vacuo without heating (EZ2, Genevac Ltd., Ipswich, UK). Then they were dissolved in 100 μL DMSO/MeOH (1:1, v/v) and transferred to microtiter plates for LC-MS/MS analysis.

[3] = Ocular PK in rats following four repeated IP administrations; format: in vivo; details: rat eye; for ocular exposure: BIO201 10 mg/kg, BIO203 2.5 mg/kg
Experimental: The compounds were administered to 8–9 months old Male Sprague-Dawley rats (n = 3 per group and per collection time) by four successive intraperitoneal administrations in vehicle (DMSO/NaCl/NaOH for BIO203 and PBS/Tween 80 (95/5) for BIO201). The solutions of BIO203 and BIO201 were centrifuged, and the clear supernatants were administered to rats. Administered volume was 10 mL/kg, and the final injected concentrations were 10 mg/kg and 2.5 mg/kg for BIO201 and BIO203, respectively. Again, doses administered differ because BIO201 and BIO203 solubility are not equivalent in their respective vehicles. The dose of BIO203 was reduced to avoid toxicity of DMSO present in the vehicle, but the same volumes were injected into animals. The eyes were collected 1 h after administrations n°1 to 4 according to the following timing: 1 h, 3.5 h, 5.5 h, and 7.5 h. After euthanasia, the two eyes of each rat were collected in a Precellys tube, frozen, and stored at −80 °C.
as §1
For determination of concentrations of BIO201 or BIO203 in ocular tissues, each eye was homogenized in CHCl3/MeOH (1:1, v/v) (0.5 mL) with a homogenizer (Precellys-24) during 2 cycles (30 s) at 6500 rpm. The internal standard (retinoic acid at 10 µg/mL) was added, and the organic layer was extracted. The homogenate was then extracted two times with CHCl3/CH2Cl2 (0.5 mL). […]

[4] = tested on: albino rats exposed to blue-light-induced photoreceptor degeneration; assay: Blue-light damage (BLD) study in albino rats: retinal histology (photoreceptor layers); format: in vivo, rat; details: for preservation of retinal structure (photoreceptor layers): four IP administrations, 6 h blue-light exposure
Experimental: At the end of the measurement period on Day 7, rats were euthanized by an intraperitoneal injection of pentobarbital. Immediately after euthanasia, both eyeballs were sampled, fixed in Davidson’s solution, and processed for histology. Sections (5 to 7 µm thick) were performed along the vertical meridian and stained with Haematoxylin/Eosin stain. The vertical meridian included the optic nerve. […] The thickness of the outer nuclear layer was measured on each point. […] Histology and photoreceptor counting in mice were performed as previously described.
Sixty-four animals were selected based on good health and on scotopic electroretinogram performed before induction when the A-wave amplitude of both eyes was in the range of the global mean (all animals) of A-wave amplitude ± 1.96 SD. Animals were then randomized into the study groups using a macro function in Excel® software based on the A-wave amplitude of both eyes (mean value). On Day 0, BIO203, negative controls, and comparator (N-tert-Butyl-a-phenylnitrone (PBN)) were intraperitoneally injected using a 25 G needle in rats that have been dark-adapted for 36 h. Individually housed rats were then exposed for 6 h (±5 min) to a continuous blue, fluorescent light (400–540 nm) in clear plastic cages. After exposure and administration, the rats were placed in a dark room for 24 h (±1 h) and then were returned to rearing cyclic light conditions.

Question: With `CC(=C/C=C/C(C)=C/C=C/C=C(C)/C=C/C=C(C)/C=C/C(=O)O)/C=C/C(=O)O` [norbixin, 9′-cis-norbixin] as the molecule, how does the “loss of the compound” value ([1]; 3 months) read?
Answer: The value was 10%.

Question: What about the “loss of the compound” value ([1]; 6 months) of the same molecule?
Answer: Its value is −20.8%.

Question: What about the “loss of the compound” value ([1]; 12 months) of the same molecule?
Answer: The value was −66.4%.

Question: And the “left of the initial quantity” value ([1]; RT, 3 months)?
Answer: Its value is 41%.

Question: And the “left of the initial quantity” value ([1]; RT, stabilized between 12 and 18 months)?
Answer: Its value is 22.1%.

Question: What about the loss of compound ([1]; −20 °C, after one year) of the same molecule?
Answer: Its loss of compound is −18.1%.

Question: What about the stability ([1]; −20 °C, up to 6 months) of the same molecule?
Answer: The stability was “appeared stable”.

Question: And the “remaining intraocular concentration at 24 h” value ([2]; rat eye, single IP, 24 h)?
Answer: The value was “no longer detectable”.

Question: What about the “intraocular AUC” value ([2]; rat eye, single IP) of the same molecule?
Answer: Its value is 2.5 ng·h/eye.

Question: What about the “intraocular Cmax” value ([2]; rat eye, single IP) of the same molecule?
Answer: Its value is “less than 8.5 ng/eye”.

Question: And the “time of intraocular Cmax post-administration” value ([2]; rat eye, single IP)?
Answer: Its value is 0.25 h.

Question: And the ocular exposure [3]?
Answer: The ocular exposure was 16.7 ng·h/eye.

Question: What about the “preservation of retinal structure (photoreceptor layers)” value (“preservation of retinal structure” for short) ([4]; 50 mg/kg, p < 0.0001) of the same molecule?
Answer: The value was “partially preserved the retinal structure”.

Question: For `COC1CCCN(C(=O)/C=C/C(C)=C/C=C/C(C)=C/C=C/C=C(C)/C=C/C=C(C)\C=C\C(=O)O)C1` (stereo not drawn) [BIO203], which stability ([1]; RT, +4 °C and −20 °C, 18 months) is on record?
Answer: Its stability is “stable at all temperatures tested for at least 18 months”.

Question: And the “ocular AUC increase compared to BIO201” value ([2]; discussion summary)?
Answer: The value was over 200 fold.

Question: What about the “ocular Cmax increase compared to BIO201” value ([2]; discussion summary) of the same molecule?
Answer: Its value is “more than 10 fold”.

Question: And the concentration at 24 h ([2]; male, Sprague-Dawley, 8.8 mg/kg, rat eye, single IP, 24 h, read-out: remaining intraocular concentration at 24 h)?
Answer: Its concentration at 24 h is about 2 ng/mL.

Question: What about the “intraocular AUC of BIO203 relative to norbixin” value ([2]; rat eye, single IP) of the same molecule?
Answer: The value was “approximately 280 times”.

Question: And the “intraocular AUC” value ([2]; rat eye, single IP)?
Answer: Its value is 704.1 ng·h/eye.

Question: And the “intraocular Cmax” value ([2]; rat eye, single IP)?
Answer: Its value is 133.1 ng/eye.

Question: What about the “time of intraocular Cmax post-administration” value ([2]; rat eye, single IP) of the same molecule?
Answer: Its value is 1 h.

Question: And the “ocular exposure of BIO203 relative to BIO201” value [3]?
Answer: The value was “approximately 10 times”.

Question: And the ocular exposure [3]?
Answer: The ocular exposure was 144.9 ng·h/eye.

Question: What about the “preservation of retinal structure” value ([4]; 5 mg/kg) of the same molecule?
Answer: The value was “did not observe neuroprotection”.

Question: What about the “preservation of retinal structure” value ([4]; 10 mg/kg) of the same molecule?
Answer: Its value is “did not observe neuroprotection”.

Question: What about the “preservation of retinal structure” value ([4]; 25 mg/kg, p < 0.0001) of the same molecule?
Answer: The value was “partially preserved the retinal structure”.

Question: What about the “neuroprotective effect compared to vehicle (preliminary experiment)” value ([4]; BIO203 at 2.5 mg/mL (so in the source), IP, rat BLD) of the same molecule?
Answer: Its value is “limited neuroprotective effect”.
